# Test results reported in patent publication US20250059191A1, “CRYSTALLINE FORMS OF DIAZABICYCLOOCTANE DERIVATIVE AND PRODUCTION PROCESS THEREOF” (MEIJI SEIKA PHARMA CO., LTD., priority 2013, published 2025).
# Tests used:
# Format in all cases: physicochemical
# [1] = Stability test of amorphous form and crystalline forms I-IV, 40° C./75% RH, airtight container
# Method: Crystalline form III of Example 7a were dissolved in water and subjected to lyophilisation to afford (2S,5R)-N-(2-aminoethoxy)-7-oxo-6-(sulfooxy)-1,6-diazabicyclo[3.2.1]octane-2-carboxamide (VII-1) in an amorphous form. The compounds in an amorphous form and crystalline forms I-IV of Examples 5-8 were each weighed in a screw bottle, and stability tests were conducted at each of the temperatures and humidity conditions. The methods of measurement of related substances, content measurement, and water content measurement were as follows.
# (§1) Samples were dissolved in water, and these solutions were used as sample solutions. The sample solutions each in the amount of 5 μL were tested under the following conditions by JP16, Liquid Chromatography <2.01>to obtain the amount of each related substance (%) and the total amount of related substances (%), and the content.
# (§2) • Column: Waters Atlantis dc18, 5 μm, 4.6×250 mm • Column temperature: a constant temperature of about 35° C. • Injected amount: 5 μL • Detector: an ultraviolet absorption photometer (wavelength: 210 nm) • Mobile phase A: 1.32 g of diammonium hydrogenphosphate was dissolved in 900 mL of water, and phosphoric acid was added to adjust the pH to 3.0. To this was then added water to make 1000 mL. • Mobile phase B: Acetonitrile for liquid chromatography • Gradient program: The mixing ratio of mobile phase A to mobile phase B was controlled as the following time program.
# (§3) About 20 mg of the product was precisely measured and tested by JP16, Water Determination <2.48>Coulometric titration.
# [2] = Stability of crystalline form III in a packaging container; conditions: polyethylene bag/aluminium laminated bag
# Method: as §1, §2, §3
# Crystalline form III was packaged under the following conditions and stability tests were conducted at each of the temperatures and humidity conditions under analysis conditions of Example 9a. The results are shown in Tables 10-12. • Packaging container • Inner bag: a low-density polyethylene·nylon tie band • Outer bag: an aluminium laminated bag·heat sealed
# [3] = Solubility in aqueous isopropanol solution
# Text: Crystalline forms I, II and III are distinguished by DSC, solubility in aqueous isopropanol, and lattice spacing in powder X-ray diffraction patterns. […]
# [4] = Experiment on crystal transformation (powder X-ray diffraction after stirring suspension or storage); conditions: suspensions after seeding and after isopropanol addition, stirred at room temperature for one day and four days
# Method: (§4) Crystal transformation in the polymorphism of the compound represented by Formula (VII-1) obtained in the present invention are not observed in a stability test carried out at 40° C. in the solid state or in stirring the suspension in a hydrous solvent for a long time. When crystalline form III of the compound represented by Formula (VII-1) was subjected to an XRD-DSC experiment, heated to 160° C. at 60% RH, and then allowed to cool on standing to 63° C., the crystalline form changed to anhydrous crystalline form over about 145° C., and then returned to the crystalline form III below about 90° C. after cooling. On the basis of these findings, a crystalline form of a compound represented by Formula (VII-1), particularly the crystalline form III constitutes a stable form under ordinary conditions.
# A small amount of a suspension of the crystals of Example 6a was taken and stirred at room temperature for one day. The precipitated crystals were collected and subjected to powder X-ray crystal diffraction.
# In the step of Example 7a, a small amount was taken out of the suspension immediately after the seeding and of the suspension after the dropwise addition of isopropanol, and each of the taken-out portions was stirred with a stirring bar at room temperature for one day and four days. The precipitated crystals were collected and subjected to powder X-ray crystals diffraction.
# Crystalline form IV of Examples 8a-c was taken and isopropanol/water (6/1) was added thereto and suspended and stirred at 25° C. or 40° C. for one week. Samples were taken after 12 hours, 24 hours (one day), 48 hours (two days), 72 hours (three days), 96 hours (four days) and 168 hours (one week), and subjected to powder X-ray crystal diffraction after through-flow drying.
# [5] = XRD-DSC experiment on crystalline form III (crystal transformation by heating)
# Method: as §4
# Crystal transformation by heating in polymorphism of crystalline form III of Example 7a was examined using XRD-DSC. Heating and cooling conditions were as follows: the temperature was elevated at a rate of 2° C./min from room temperature to 160° C. and then cooled to 63° C. under a constant relative humidity (RH) of 60%. DSC and XRD of the samples were successively measured. […]
# [6] = 60° C., 4 weeks (text: 1 month)
structure (smiles),measurement,setting,value
"NCCONC(=O)[C@@H]1CC[C@@H]2CN1C(=O)N2OS(=O)(=O)O [Crystalline form III, (2S,5R)-N-(2-aminoethoxy)-7-oxo-6-(sulfooxy)-1,6-diazabicyclo[3.2.1]octane-2-carboxamide]",Content,[1]; 1 month,100.0%
same,Total amount of related substances,[1]; 1 month,0.0%
same,Water content,[1]; 1 month,5.3%
same,Content,"[1]; 1 month, listed as Form III",100.0%
same,Total amount of related substances,"[1]; 1 month, listed as Form III",0.0%
same,Water content,"[1]; 1 month, listed as Form III",5.3%
same,Content,[1]; 3 months,99.9%
same,Total amount of related substances,[1]; 3 months,0.0%
same,Water content,[1]; 3 months,5.5%
same,Content,"[1]; 3 months, listed as Form III",99.9%
same,Total amount of related substances,"[1]; 3 months, listed as Form III",0.0%
same,Water content,"[1]; 3 months, listed as Form III",5.5%
same,Content,[1]; at start,99.9%
same,Total amount of related substances,[1]; at start,0.0%
same,Water content,[1]; at start,5.3%
same,Content,"[1]; at start, listed as Form III",99.9%
same,Total amount of related substances,"[1]; at start, listed as Form III",0.0%
same,Water content,"[1]; at start, listed as Form III",5.3%
same,Content,"[2]; 25° C./60% RH, 3 months",99.9%
same,Total amount of related substances,"[2]; 25° C./60% RH, 3 months",0.07%
same,Water content,"[2]; 25° C./60% RH, 3 months",5.23%
same,Content,"[2]; 25° C./60% RH, at start",99.9%
same,Total amount of related substances,"[2]; 25° C./60% RH, at start",0.09%
same,Water content,"[2]; 25° C./60% RH, at start",5.32%
same,Content,"[2]; 40° C./75% RH, 1 month",99.9%
same,Total amount of related substances,"[2]; 40° C./75% RH, 1 month",0.07%
same,Water content,"[2]; 40° C./75% RH, 1 month",5.51%
same,Content,"[2]; 40° C./75% RH, 2 months",99.9%
same,Total amount of related substances,"[2]; 40° C./75% RH, 2 months",0.04%
same,Water content,"[2]; 40° C./75% RH, 2 months",5.27%
same,Content,"[2]; 40° C./75% RH, 3 months",99.9%
same,Total amount of related substances,"[2]; 40° C./75% RH, 3 months",0.06%
same,Water content,"[2]; 40° C./75% RH, 3 months",5.29%
same,Content,"[2]; 40° C./75% RH, at start",99.9%
same,Total amount of related substances,"[2]; 40° C./75% RH, at start",0.09%
same,Water content,"[2]; 40° C./75% RH, at start",5.20%
same,Content,"[2]; 60° C., 2 weeks",99.9%
same,Total amount of related substances,"[2]; 60° C., 2 weeks",0.02%
same,Water content,"[2]; 60° C., 2 weeks",5.20%
same,Content,[2]; [6],99.9%
same,Total amount of related substances,[2]; [6],0.04%
same,Water content,[2]; [6],5.08%
same,Content,"[2]; 60° C., at start",99.9%
same,Total amount of related substances,"[2]; 60° C., at start",0.09%
same,Water content,"[2]; 60° C., at start",5.20%
same,Solubility in an aqueous 60% isopropanol solution,[3]; 10° C.,0.76%
same,Solubility in an aqueous 60% isopropanol solution,[3]; 20° C.,0.80%
same,Crystal transformation to a different crystal form,[4],No crystal transformation to a different crystal form was observed
same,Temperature at which it returned to the crystalline form III after cooling,[5]; allowed to cool to 63° C. at 60% RH,below 90 °C
same,Temperature at which the crystalline form changed to anhydrous crystalline form,[5]; heated to 160° C. at 60% RH,over 145 °C
